Laboratory results published in article PMC7619385 (ACS infectious diseases, 2025).
Where two headings read alike, the source gives them in different places.

Key:
LmxCLK1 [1] = target: T1, LmxCLK1 (Leishmania mexicana, UniProt E9AMP2); assay: HTRF (TR-FRET) enzymatic inhibition assay; type: biochemical; details: IC50 enzymatic inhibition of LmxCLK1, purified LmxCLK1, 30-min pre-incubation, 66 µM ATP
T1 sequence (E9AMP2 1-422): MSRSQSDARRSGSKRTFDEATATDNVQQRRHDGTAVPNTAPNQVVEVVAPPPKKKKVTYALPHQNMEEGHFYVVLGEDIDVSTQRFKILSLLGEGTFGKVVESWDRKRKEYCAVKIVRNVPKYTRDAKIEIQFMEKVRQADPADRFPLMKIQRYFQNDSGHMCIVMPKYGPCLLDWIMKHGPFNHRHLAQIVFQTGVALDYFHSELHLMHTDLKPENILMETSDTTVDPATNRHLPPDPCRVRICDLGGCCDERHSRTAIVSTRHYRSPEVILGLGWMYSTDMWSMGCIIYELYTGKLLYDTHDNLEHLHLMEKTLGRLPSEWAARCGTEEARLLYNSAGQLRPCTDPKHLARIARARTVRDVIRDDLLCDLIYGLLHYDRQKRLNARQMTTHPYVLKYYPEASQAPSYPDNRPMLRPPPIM
Description: The enzymatic activity of full-length LmxCLK1 was monitored using a homogenous time-resolved fluorescence (HTRF)-based assay (HTRF KinEASE-STK S3 kit, Cisbio - catalog #62ST3PEC). For IC50 value determination, the data from two independent experiments performed in duplicate were fitted to the sigmoidal dose-response (variable slope) equation available in GraphPad Prism (v. 9.1.0). Detailed information for IC50 determination can be found in the Supplementary Information. […]
min at 4 °C. The supernatants were loaded onto an immobilized metal affinity chromatography (IMAC) […]
column (5 mL HisTrap FF Crude, GE Healthcare) and washed in Binding Buffer containing 30 mM imidazole.
Proteins were eluted in Binding Buffer with 300 mM imidazole. To remove the N-terminal 6xHis-tag […]
introduced during cloning (see above), proteins were incubated with TEV protease during dialysis […]
overnight at 4 °C into Gel Filtration Buffer (20 mM HEPES, 500 mM NaCl, 5% glycerol, 0.5 mM TCEP).
Recombinant proteins were further purified using reverse affinity chromatography on Ni-Sepharose […]
followed by gel filtration (Superdex 200 16/60, GE Healthcare), and concentrated using 10 kDa molecular […]
weight cut-off centrifugal concentrators (Millipore). LmxCLK1 (CQMED clone ID LmxCLK1-cb001) and […]
NLuc-LmxCLK1 (CQMED clone ID LmxCLK1-cb021) proteins were stored at -80 °C for in vitro biochemical […]
assays at 0.5 mg/mL and 0.7 mg/mL, respectively, measured by UV absorbance with a NanoDrop […]
spectrophotometer (Thermo Scientific), using the calculated molecular weight and estimated extinction […]
Purified proteins were further analyzed by LC-ESI-MS in a XEVO G2 Sx Q-ToF (Waters). Expected intact […]
masses for LmxCLK1 (CQMED clone ID LmxCLK1-cb001) and NLuc-LmxCLK1 (CQMED clone ID LmxCLK1- […]
cb021) were: 48,791.14 Da and 68,411.71 Da, respectively.
We monitored the activity of recombinantly produced full-length LmxCLK1 (CQMED clone ID LmxCLK1- […]
cb001) using a commercially-available homogenous time-resolved fluorescence (HTRF)-based assay (HTRF […]
KinEASE-STK S3 kit, Cisbio - catalog #62ST3PEC). Assay development included establishing reaction […]
parameters (optimal enzyme concentration, ATP concentration and reaction time).
(15-point, 3-fold serial dilution and a highest final assay concentration of 10 µM) prior to transfer (100 nL) […]
to a black, 384-well, round bottom, low-volume plate (Corning catalog #4514) containing a mixture of […]
LmxCLK1 and peptide substrate in kinase buffer using an automated liquid transferring system (CYBIO […]
FeliX®, Analytik Jena, Jena, Germany). […]
started by the addition of ATP and allowed to proceed for 75 min at 30 °C. Final concentrations for reaction […]
components were: 6 nM LmxCLK1, 66 µM ATP (10× KM,ATP), 1 µM peptide (STK Substrate 3-biotin, Cisbio).
All components were prepared in 1× Enzymatic Buffer (Cisbio) supplemented with 5 mM MgCl2, 1 mM […]
DTT, 0.01% Tween-20. The reaction was stopped by the addition of Detection Buffer containing EDTA, […]
Fluorescence signal was measured using a CLARIOstar microplate reader (BMG LABTECH) with excitation […]
at 330 nm, emission at 665 nm (acceptor) and 620 nm (donor), integration delay 60 μs and integration […]
time 400 μs. All reactions were done in duplicate and two independent experiments were performed.
Enzyme activity was expressed as the background-corrected HTRF ratio of the acceptor and donor […]
emission signals according to equation [1]:
(also on this page, place not known: imi dazole. Ni -Sepharose background -corrected (665/620)=3Acceptor!!"#$ −backgroundD.10,000 Downloaded from http://pubs.acs.org/aidcbc/article-supplement/3662943/pdf/id5c00610_si_001/ by guest on 07 August 2026) […]
where background is the background fluorescence obtained in the absence of enzyme (blank).
To determine IC50 values, the background-corrected HTRF ratio was plotted as a function of test

[2] = system: L. mexicana promastigotes; assay: Promastigote viability (Alamar Blue/resazurin); type: cell-based; details: Leishmania mexicana; 48 h compound exposure; read-out: EC50 promastigote viability
Description: Next, we evaluated GZD824 ability to reduce the viability of L. mexicana promastigotes by monitoring the reduction of resazurin (Alamar Blue).[31]
L. mexicana (strain MNYC/BZ/62/M379) promastigotes were cultivated in medium 199 (M199) (Earle’s Salts - Gibco) supplemented with 10% (v/v) heat-inactivated fetal calf serum (HIFCS – Cultilab) and 1% Penicillin/Streptomycin solution (Sigma-Aldrich) at 26 °C. Phenotypic drug response assays in null mutant and point-mutation mutant lines were performed in HOMEM supplemented with 10% (v/v) heat-inactivated fetal calf serum (HIFCS – Gibco). THP-1 monocytes were differentiated in adherent macrophages with 50 ng of PMA for 72 h at 37 °C and 5% CO2 before infection with stationary phase promastigotes (ratio 10 promastigotes:1 macrophage) for 6 h, followed by washing to remove non-internalized Leishmania. Infected macrophages were incubated at 34 °C and 5% CO2 for 48 h in RPMI (Gibco) supplemented with 10% HIFCS and 1% Penicillin/Streptomycin solution.
For evaluation of drug effect on promastigote and uninfected macrophage viability, cells were cultivated in the presence of test compounds for 24 h and incubated with 10% AlamarBlue™ Cell Viability Reagent (ThermoFisher) for 24 h before measuring fluorescence at λex 540 nm/λem 590 nm. Untreated cells (1% DMSO) were set as 100 % viable cells. Intracellular amastigotes were treated with compounds for 48 h. Slides with paraformaldehyde-fixed and DAPI-stained cells were imaged on a Zeiss AxioImager microscope – at least 200 macrophages per drug concentration and DMSO control. Experiments were performed in duplicate. The total number of amastigotes was normalized by the number of macrophages counted. For EC50 determination, the data was fitted to the sigmoidal dose-response (variable slope) equation in GraphPad Prism (v.9.1.0).

NLuc::LmxCLK1 [3] = target: T2, NLuc::LmxCLK1 (Leishmania mexicana, UniProt E9AMP2); assay: In vitro BRET with purified NLuc::LmxCLK1; type: binding
Description: in vitro BRET used purified NLuc-LmxCLK1 in Kinase Buffer (50 mM HEPES, 1 mM EGTA, 10 mM MgCl^2, 2 mM DTT and 0.01% Tween-20) aliquoted into 96-well plates (Greiner #655904). In cell BRET assays used engineered L. mexicana (promastigotes or intramacrophage amastigotes) expressing NLuc-LmxCLK1 in cell media aliquoted into 96-well plates (Greiner, #655083). For tracer titration experiments, BRET probes were serially diluted from 100% DMSO stocks – first in 100% DMSO to 100x final assay concentration, and then in Tracer Dilution Buffer (TDB - 12.5 mM HEPES, pH 7.5; 31.25% PEG 400) to 20x the final assay concentration. Serially diluted probes (5 µL) were added to 85 µL of cells in culture media or 85 µL of purified protein. Final well volumes were adjusted to 100 µL with sterile Opti-MEM™ I Reduced Serum Medium (Thermo-Scientific) – for wells containing cells; or Kinase Buffer - for wells containing purified protein. For tracer displacement assays, samples were prepared as above, but final volume was brought to 100 µL by addition of vehicle or serially-diluted test compounds. Final DMSO concentration in these assays was 1%. Plates were incubated for 30 min at 25 °C (purified protein and promastigotes) or 34 °C (intramacrophage amastigotes), and 50 µL of Promega cocktail containing furimazine and NLuc extracellular inhibitor (catalog #N2161) were added to each well. Light emissions at 460+10 nm (BRET donor) and at 610+20 nm (BRET acceptor) were sequentially recorded (integration time = 0.5 s, gain = 3600) using a luminometer (BMG LABTECH Clariostar or Biotek Synergy HT). BRET values are reported in milli-BRET (mBRET) units (mBU), obtained by dividing the acceptor luminescence by the donor luminescence and multiplying the result by a factor of 1,000. BRET values were converted to blank-corrected probe occupancies (%) according to equation [1]: (1) Probeoccupancy(%)=X−Z/Y−Z×100 where X = mBRET value in the presence of the test compound and the probe, Y = mBRET value in the presence of probe only, and Z = mBRET value in the absence of probe and test compound.
To determine apparent dissociation constants from saturation binding curves, mBRET values were plotted as a function of probe concentration, and probe affinity values (KD) were determined using the hyperbolic dose-response equation for binding to a single site available in GraphPad Prism (v. 9.1.0).

NLuc::LmxCLK1 [4] = target: T2, NLuc::LmxCLK1; assay: cell-based; type: cell-based; details: for Target occupancy Run 1 / Target occupancy Run 2 / Target occupancy Average: 10 µM compound, tracer SV366, promastigotes; for Target occupancy Average: mean of two experiments
Method in brief: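 NanoBRET tracer displacement in live cells expressing NLuc-tagged CLK1, test compounds at 10 µM fixed, 1% DMSO final. Acceptor/donor emission (610/460 nm) ratio gives mBRET, converted to blank-corrected probe occupancy (%); probe KD from single-site saturation binding fits.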

LmxCLK1 [5] = target: T1, LmxCLK1; assay: biochemical; type: binding
[6] = DSF, 10 µM compound, 2 µM LmxCLK1, Run 1
[7] = DSF, 10 µM compound, 2 µM LmxCLK1, Run 2
[8] = DSF, 10 µM compound, 2 µM LmxCLK1, mean of two runs

Row | SMILES | Target occupancy Run 1 (NLuc::LmxCLK1 [4]) | Target occupancy Run 2 (NLuc::LmxCLK1 [4]) | Target occupancy Average (NLuc::LmxCLK1 [4]) | ΔTm Run 1 (LmxCLK1 [5]; [6]) | ΔTm Run 2 (LmxCLK1 [5]; [7]) | ΔTm Average (LmxCLK1 [5]; [8]) | other results
1 | CN[C@@H]1C[C@H]2O[C@@](C)([C@@H]1OC)n1c3ccccc3c3c4c(c5c6ccccc6n2c5c31)C(=O)NC4 [Staurosporine] |  |  |  |  |  |  | IC50 (LmxCLK1 [1]): 460 nM; EC50 [2]: 900 nM
2 | Cc1ccc(C(=O)Nc2ccc(CN3CCN(CCCNC(=O)CCC4=[N+]5C(=Cc6ccc(-c7ccc[nH]7)n6[B-]5(F)F)C=C4)CC3)c(C(F)(F)F)c2)cc1C#Cc1cnc2[nH]ncc2c1 [SV363] |  |  |  |  |  |  | EC50 (NLuc::LmxCLK1 [3]): > 1000 nM
3 | Cc1ccccc1CN1C(=O)C2=C(CCN(Cc3ccccc3)C2)N2CCN=C12 [TIC10] | 4.1% | -6.1% | -1.0% |  |  |  | ΔTm Average (LmxCLK1 [5]): 0.2 °C; ΔTm Run 1 (LmxCLK1 [5]): 0.2 °C; ΔTm Run 2 (LmxCLK1 [5]): 0.2 °C
4 | O=C(Nc1nc2cccc(-c3ccc(CN4CCS(=O)(=O)CC4)cc3)n2n1)C1CC1 [Filgotinib (GLPG0634)] |  |  |  |  |  |  | receptor occupancy at 10 µM (NLuc::LmxCLK1 [4]; read-out: Target occupancy Average): -15.3%; receptor occupancy at 10 µM (NLuc::LmxCLK1 [4]; read-out: Target occupancy Run 1): -9.1%; receptor occupancy at 10 µM (NLuc::LmxCLK1 [4]; read-out: Target occupancy Run 2): -21.6%; ΔTm at 10 µM (LmxCLK1 [5]; DSF, 10 µM compound, 2 µM LmxCLK1, Run 1, read-out: ΔTm Run 1): 0.2 °C; ΔTm at 10 µM (LmxCLK1 [5]; DSF, 10 µM compound, 2 µM LmxCLK1, Run 2, read-out: ΔTm Run 2): -0.4 °C; ΔTm at 10 µM (LmxCLK1 [5]; DSF, 10 µM compound, 2 µM LmxCLK1, mean of two runs, read-out: ΔTm Average): -0.1 °C
5 | N#Cc1c(O)c2c(-c3ccc(-c4ccccc4O)cc3)csc2[nH]c1=O [A-769662] | 1.2% | -1.3% | 0.0% |  |  |  | ΔTm Average (LmxCLK1 [5]): -0.1; ΔTm Run 1 (LmxCLK1 [5]): -0.1; ΔTm Run 2 (LmxCLK1 [5]): 0 °C
6 | COc1cc2ncnc(Nc3ccc(F)c(Cl)c3)c2cc1NC(=O)/C=C/CN1CCCCC1 [Dacomitinib (PF299804)] | 1.4% | -14.2% | -6.4% | -0.4 °C | -0.5 °C | -0.4 °C | 
7 | CC[C@H](Nc1ncnc2[nH]cnc12)c1nc2cccc(F)c2c(=O)n1-c1ccccc1 [CAL-101 (Idelalisib)] | 0.2% | 0.1% | 0.1% | -0.2 °C | -0.2 °C | -0.2 °C | 
8 | CNC(=O)c1cc(Oc2ccc(NC(=O)Nc3ccc(Cl)c(C(F)(F)F)c3)c(F)c2)ccn1 [Regorafenib (BAY 73-4506)] | -4.0% | -5.3% | -4.6% | 0.1 °C | -0.3 °C | -0.1 °C | 
9 | CN1CC[C@H](c2c(O)cc(O)c3c(=O)cc(-c4ccccc4Cl)oc23)[C@H](O)C1.Cl [Flavopiridol HCl] | 1.6% | -3.3% | -0.8% | 0.1 °C | -0.1 °C | 0.0 °C | 
